Measurements published in patent US20230414771A1, “PREPARATION AND USE OF IMMUNOSTIMULATORY CONJUGATED COMPLEXES FOR TARGETED DELIVERY AND ACTIVATION” (YAFEI SHANGHAI BIOLOGY MEDICINE SCIENCE & TECHNOLOGY CO., …, priority 2020, published 2023).
Where a SMILES comes first, the peptide text is derived from it. The star is where a group is joined. Doxorubicin(3'-N) = COc1cccc2c1C(=O)c1c(O)c3c(c(O)c1C2=O)C[C@@](O)(C(=O)CO)C[C@@H]3O[C@H]1C[C@H](N*)[C@H](O)[C@H](C)O1; Hexanoyl(6-maleimido) = O=C1C=CC(=O)N1CCCCCC(=O)*

How the values were obtained:
HSA = HSA (Homo sapiens, UniProt P02768); assay: Binding of compounds with HSA (albumin coupling); settings: compound with HSA 3:1, 37° C. for 3 h
Chain of HSA (P02768 25-609): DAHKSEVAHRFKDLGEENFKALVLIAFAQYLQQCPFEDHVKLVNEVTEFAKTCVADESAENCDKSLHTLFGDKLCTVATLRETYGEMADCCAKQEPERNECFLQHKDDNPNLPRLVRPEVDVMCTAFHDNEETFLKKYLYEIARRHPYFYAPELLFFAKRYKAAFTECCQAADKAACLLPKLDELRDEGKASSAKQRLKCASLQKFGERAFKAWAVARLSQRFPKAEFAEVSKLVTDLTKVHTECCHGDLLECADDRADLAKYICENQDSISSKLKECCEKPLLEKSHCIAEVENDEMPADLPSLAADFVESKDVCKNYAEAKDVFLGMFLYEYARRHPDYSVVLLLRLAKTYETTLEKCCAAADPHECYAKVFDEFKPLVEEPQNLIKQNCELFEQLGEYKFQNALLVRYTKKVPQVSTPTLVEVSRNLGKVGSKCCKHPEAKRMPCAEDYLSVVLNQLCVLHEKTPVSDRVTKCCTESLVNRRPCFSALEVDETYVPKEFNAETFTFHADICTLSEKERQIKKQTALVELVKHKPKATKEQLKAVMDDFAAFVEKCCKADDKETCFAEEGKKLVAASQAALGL
Method: HSA was dissolved in sterile water. The compound was combined with HSA at a ratio of 3:1 (4.8 umol/mL, 1.6 umol/mL), and reacted in a water bath at 37° C. for 3 h. The reaction solution was taken out, and the unbound compound was filtered by pressurized ultrafiltration membrane, diluted with normal saline and filtered for 3 times to obtain the semi-finished product.

[1] = tested on: Human non-small cell lung cancer A549 tumor tissue homogenate; assay: Activation in A549 tumor tissue homogenate; assay type: biochemical; settings: A549 homogenate pH 6.0, 37° C., 1 mg/ml
Method: In the experiments of the present disclosure, 1 mg/ml of the sample compound was added to 100 μg of acidified tumor tissue homogenate (pH 6.0) at 37° C. The enzyme in the tumor tissue homogenate can cause the release of doxorubicin, and the reduction of compound and the increase of doxorubicin could be detected by HPLC to compare the activation efficiency of the drug in the tumor tissue.

M2 macrophages [2] = assay: Cytotoxicity screening, inhibition rate of M2 macrophages at 10 uM; assay type: cell-based, C57BL/6 mice; settings: 10 uM drug per well, 3 wells, relative to the drug-free group
Method: After the cell count in Example 13, the cell concentration was adjusted with the culture medium, and the cells were seeded in a 96-well culture plate at […] of cell suspension per well, wherein the seeding concentration of CD8+ T cells was 100000 cells/well, and the seeding concentration of M2 macrophages was 20000 cells/well. The 96-well plate was incubated overnight for 24 hour at 37° C. in a carbon dioxide (5%) incubator. After 24 hours, 100 ul of cell culture solutions containing different concentrations of drugs were added to the 96-well culture plate. At the same time, a control well (0.1% DMSO) with no drug added and only the corresponding drug solvent and a zero-adjusted well (Blank) with only medium and no cells added was set. Each set was prepared in triplicate and the plates were incubated for 48 hours at 37° C. in a 5% CO2 incubator. After 48 hours, 20 μl MTT (5 mg/ml) was added to each well and the incubation was continued for 4 hours. The culture medium was then gently aspirated, and 150 μl DMSO was added to each well as solvent for dissolution. After dissolution, the absorbance at 490 nm was measured with a microplate reader.
Cytotoxicity screening experiments for some compounds were performed for M2 macrophage inhibition as in embodiment 14.

[3] = assay type: physicochemical
Excerpt: The freeze-dried products EMC-AANL-DOX, HSA-EMC-AANL-DOX, HSA-QHL-087-DOX and HSA-QHL-087-N-CBP prepared by the embodiment of the disclosure are subpackaged in a sterile room and redissolved by water for injection.

M2 macrophages [4] = assay: MTT cytotoxicity on M2 macrophages; assay type: cell-based, C57BL/6 mice; settings: 48 hours, relative to C3
Method: The bilateral femur and tibiae of two C57BL/6 mice were taken out under aseptic conditions, and that metaphysis was cut off in a super-clean table. the marrow cavity was gently washed with serum-free MEM culture solution by a 5 mL sterile syringe for 4 times, and all cell suspensions were collect; Centrifuge at 1000 r/min for 10 min, discard the supernatant to obtain the cell precipitate, resuspend with an appropriate volume of serum-free MEM culture medium, repeatedly blow and homogenize, filter with a 40 uM filter screen, add 3 times the volume of erythrocyte lysate, and lyse on ice for 10 min; Centrifuge at 1000 r/min for 5 min, discard the supernatant to obtain the cell precipitate, wash with serum-free MEM culture medium for 2 times, and collect the cell precipitate; Resuspend the cells with MEM complete culture medium containing 10% FBS and 1% PS in volume fraction, and count the cells for subsequent differentiation; 100 uL, 20000 cells/well were inoculated into 96-well cell culture plate, 100 ng M-CSF was added into the culture medium for differentiation of M2 macrophages, and the cells were statically cultured at 37° C. in 5% C02 incubator, and induced to differentiate for 7 days, and the cell morphology was observed. […]
The cell survival rate and the 50% inhibitory concentration of the drug on the cells were calculated. […]

[5] = Tissue distribution of released doxorubicin in orthotopic liver CT26 tumor mice; assay type: in vivo, BALB/c mice
Method: • Objective: To investigate the tissue distribution of activating drugs in liver tumors. • Test animals: BALB/c mice, 6-8 weeks old, all female.
• 1) CT26 cells were purchased from ATCC. […] Randomization was performed when the tumor size reached 800-1000 mm^3. Tumor tissue was then extracted and cut into 100 mm^3 tumor tissue pieces and transplanted orthotopically into BALB/c mouse livers. • 3) Administration process: After 14 days, when the orthotopically transplanted tumor grew, a group of 36 orthotopically transplanted tumor mice were treated with drugs. […] The previously published use of EMC-AANL-DOX was for breast cancer treatment.

COc1cccc2c1C(=O)c1c(O)c3c(c(O)c1C2=O)C[C@@](O)(C(=O)CO)C[C@@H]3O[C@H]1C[C@H](NC(=O)[C@H](CC(C)C)NC(=O)[C@H](CC(N)=O)NC(=O)[C@H](C)NC(=O)[C@H](C)NC(=O)CCCCCN2C(=O)C=CC2=O)[C@H](O)[C@H](C)O1 [EMC-AANL-DOX] ({Hexanoyl(6-maleimido)}-AANL-{Doxorubicin(3'-N)})
binding rates of HSA (HSA): 62%
Compound activation ratios (%) [1]: 46.4%
Inhibition rate of M2 macrophages (M2 macrophages [2]): 34.6%
Solubility in water for injection [3]: Insolubility

COc1cccc2c1C(=O)c1c(O)c3c(c(O)c1C2=O)C[C@@](O)(C(=O)CO)C[C@@H]3O[C@H]1C[C@H](NC(=O)[C@H](CC(C)C)NC(=O)[C@H](CC(N)=O)NC(=O)[C@H](C)NC(=O)[C@H](C)NC(=O)CCOCCOCCNC(=O)CCN2C(=O)C=CC2=O)[C@H](O)[C@H](C)O1 [QHL-087-DOX]
cytotoxicity against M2 macrophages (FIG. 6) (M2 macrophages [4]): significantly improved cytotoxicity against M2 macrophages
doxorubicin delivery and activation compared with EMC-AANL-DOX ([5]; liver and in situ liver tumor): enhanced doxorubicin delivery and activation in situ liver cancer
distribution of active doxorubicin (FIGS. 8 and 9) ([5]; tissues collected at 1-72 hr, AUClast): mainly distributed in the liver and liver orthotopic tumors
